The values below come from patent US9440969B2, “Compounds and methods for kinase modulation, and indications therefor” (PLEXXIKON INC., priority 2009, dated 2016).

Where only a bound is given, the exact number is not on record here.

For one assay, the target named is B-Raf (Homo sapiens, UniProt P15056). As to the kind of experiment: B-Raf kinase activity assay (AlphaScreen, biotin-MEK1 substrate). The settings on record: 100 μM ATP, 100 nM biotin-MEK1, 45 minutes at room temperature; read-out: Biochemical activity (IC50 μM) B-Raf. In short, it runs like this:
(§1)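 Each Raf enzyme (0.1 ng) phosphorylates 100 nM biotin-MEK1 in pH 7.0 HEPES with Mg2+/Mn2+, 100 μM ATP final, 45 min at room temperature. Phospho-MEK1/2 antibody with AlphaScreen beads is read after 3 h. IC50 comes from an 8-point dilution series.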

In the next assay the target is B-Raf V600E (Homo sapiens, UniProt P15056, V600E). The experiment in a line: B-Raf V600E kinase activity assay (AlphaScreen, biotin-MEK1 substrate). The note with it: 100 μM ATP, 100 nM biotin-MEK1, 45 minutes at room temperature, read-out: Biochemical activity (IC50 μM) V600E. In a few lines:
as §1
For orientation: Bead proximity is the source of the signal in Alpha formats.

The target in another assay is T1, CYP1A2 (Homo sapiens, UniProt P05177).
T1 sequence (P05177 1-516): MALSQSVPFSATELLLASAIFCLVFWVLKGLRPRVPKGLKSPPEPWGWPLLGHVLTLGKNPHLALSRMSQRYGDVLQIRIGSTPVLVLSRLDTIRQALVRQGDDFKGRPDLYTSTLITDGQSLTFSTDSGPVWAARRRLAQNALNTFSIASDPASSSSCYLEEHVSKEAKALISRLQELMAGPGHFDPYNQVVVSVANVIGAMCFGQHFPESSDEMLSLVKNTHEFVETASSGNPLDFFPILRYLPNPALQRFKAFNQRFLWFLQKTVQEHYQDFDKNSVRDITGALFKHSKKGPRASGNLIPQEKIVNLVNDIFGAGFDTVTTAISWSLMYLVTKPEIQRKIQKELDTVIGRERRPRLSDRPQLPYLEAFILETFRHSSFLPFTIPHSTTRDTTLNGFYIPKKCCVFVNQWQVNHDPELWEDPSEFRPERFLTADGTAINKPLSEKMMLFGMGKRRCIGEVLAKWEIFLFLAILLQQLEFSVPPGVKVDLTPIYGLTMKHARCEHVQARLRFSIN
The experiment in a line: CYP1A2 inhibition (fluorescent substrate CEC). The settings on record: read-out: Cyp IC50 (μM) 1A2. Type of assay: in vitro ADME. In a few lines: (§2)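 Human CYP enzymes with fluorogenic substrates and NADPH regeneration, compound preincubated 10 min at 37 °C in 10-point 1:1 dilution series. CYP1A2 0.5 pmol/5 μM CEC, 15 min, 409/460 nm; CYP2C9 1.0 pmol/75 μM MFC, 45 min, 409/530 nm; CYP2D6 1.5 pmol/1.5 μM AMMC, 30 min, 409/530 nm; CYP3A4 1.0 pmol/50 μM BFC, 30 min, 409/460 nm. IC50 from fluorescence vs concentration.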

Another assay has as its target CYP2C19 (Homo sapiens, UniProt P33261). The experiment in a line: CYP2C19 inhibition (fluorescent substrate CEC). Type of assay: in vitro ADME. The settings on record: read-out: Cyp IC50 (μM) 2C19.
For the next assay, the target named is CYP2C9 (Homo sapiens, UniProt P11712). The experiment in a line: CYP2C9 inhibition (fluorescent substrate MFC). Type of assay: in vitro ADME. The settings on record: read-out: Cyp IC50 (μM) 2C9. In a few lines: as §2
A further assay has as its target CYP2D6 (Homo sapiens, UniProt P10635). As to the kind of experiment: CYP2D6 inhibition (fluorescent substrate AMMC). Type of assay: in vitro ADME. The note with it: read-out: Cyp IC50 (μM) 2D6. In a few lines: as §2
For another assay, the target named is CYP3A4(BFC) (Homo sapiens, UniProt P08684). The experiment in a line: CYP3A4 inhibition (substrate BFC). Type of assay: in vitro ADME. The settings on record: read-out: Cyp IC50 (μM) 3A4(BFC). In a few lines: as §2
Chain of CYP3A4(BFC) (P08684 whole entry): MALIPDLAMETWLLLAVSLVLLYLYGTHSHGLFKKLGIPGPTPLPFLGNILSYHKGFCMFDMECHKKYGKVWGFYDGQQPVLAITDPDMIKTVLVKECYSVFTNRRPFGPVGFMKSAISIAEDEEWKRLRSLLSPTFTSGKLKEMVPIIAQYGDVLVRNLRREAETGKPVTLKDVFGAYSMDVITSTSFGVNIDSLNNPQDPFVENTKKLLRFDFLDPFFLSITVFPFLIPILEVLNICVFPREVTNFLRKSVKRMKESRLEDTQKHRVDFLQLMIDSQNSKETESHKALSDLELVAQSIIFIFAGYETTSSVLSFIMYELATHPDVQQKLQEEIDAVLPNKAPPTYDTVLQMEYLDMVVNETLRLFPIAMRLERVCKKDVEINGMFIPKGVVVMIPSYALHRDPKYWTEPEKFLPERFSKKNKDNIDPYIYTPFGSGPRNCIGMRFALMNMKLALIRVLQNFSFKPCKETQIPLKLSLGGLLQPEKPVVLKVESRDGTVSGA

Chain of B-Raf V600E (P15056 whole entry V600E): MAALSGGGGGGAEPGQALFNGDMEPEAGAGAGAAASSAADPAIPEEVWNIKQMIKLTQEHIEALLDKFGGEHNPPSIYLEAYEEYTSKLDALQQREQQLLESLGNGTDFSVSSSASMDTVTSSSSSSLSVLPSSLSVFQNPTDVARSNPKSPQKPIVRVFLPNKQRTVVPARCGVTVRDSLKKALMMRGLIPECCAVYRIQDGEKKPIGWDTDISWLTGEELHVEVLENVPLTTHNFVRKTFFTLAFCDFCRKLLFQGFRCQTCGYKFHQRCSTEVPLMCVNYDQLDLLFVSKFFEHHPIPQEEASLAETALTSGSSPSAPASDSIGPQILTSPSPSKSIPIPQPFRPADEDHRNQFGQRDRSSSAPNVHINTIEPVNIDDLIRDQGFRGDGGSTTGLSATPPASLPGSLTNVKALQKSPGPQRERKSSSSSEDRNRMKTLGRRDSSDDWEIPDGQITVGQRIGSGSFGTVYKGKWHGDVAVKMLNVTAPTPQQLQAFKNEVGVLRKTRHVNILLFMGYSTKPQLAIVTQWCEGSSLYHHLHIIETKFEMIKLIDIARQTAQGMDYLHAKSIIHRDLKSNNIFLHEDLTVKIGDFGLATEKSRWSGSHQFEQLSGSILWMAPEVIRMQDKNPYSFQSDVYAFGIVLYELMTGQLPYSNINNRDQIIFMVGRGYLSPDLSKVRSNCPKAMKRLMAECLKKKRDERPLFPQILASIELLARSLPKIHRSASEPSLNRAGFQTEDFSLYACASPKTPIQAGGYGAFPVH
Chain of CYP2D6 (P10635 whole entry): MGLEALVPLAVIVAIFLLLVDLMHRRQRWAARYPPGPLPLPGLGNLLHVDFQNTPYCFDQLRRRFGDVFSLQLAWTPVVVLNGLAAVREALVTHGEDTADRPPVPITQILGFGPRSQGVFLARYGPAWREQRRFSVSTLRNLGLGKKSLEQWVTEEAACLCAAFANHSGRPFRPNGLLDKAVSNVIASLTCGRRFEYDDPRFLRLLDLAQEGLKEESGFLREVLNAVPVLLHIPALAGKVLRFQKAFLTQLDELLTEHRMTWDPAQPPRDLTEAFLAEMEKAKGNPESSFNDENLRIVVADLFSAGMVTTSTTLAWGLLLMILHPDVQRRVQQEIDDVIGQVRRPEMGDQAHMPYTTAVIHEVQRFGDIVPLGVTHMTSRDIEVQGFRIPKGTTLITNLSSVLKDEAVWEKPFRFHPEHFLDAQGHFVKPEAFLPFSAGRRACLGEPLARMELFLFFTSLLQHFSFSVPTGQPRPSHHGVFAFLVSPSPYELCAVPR
Chain of CYP2C19 (P33261 whole entry): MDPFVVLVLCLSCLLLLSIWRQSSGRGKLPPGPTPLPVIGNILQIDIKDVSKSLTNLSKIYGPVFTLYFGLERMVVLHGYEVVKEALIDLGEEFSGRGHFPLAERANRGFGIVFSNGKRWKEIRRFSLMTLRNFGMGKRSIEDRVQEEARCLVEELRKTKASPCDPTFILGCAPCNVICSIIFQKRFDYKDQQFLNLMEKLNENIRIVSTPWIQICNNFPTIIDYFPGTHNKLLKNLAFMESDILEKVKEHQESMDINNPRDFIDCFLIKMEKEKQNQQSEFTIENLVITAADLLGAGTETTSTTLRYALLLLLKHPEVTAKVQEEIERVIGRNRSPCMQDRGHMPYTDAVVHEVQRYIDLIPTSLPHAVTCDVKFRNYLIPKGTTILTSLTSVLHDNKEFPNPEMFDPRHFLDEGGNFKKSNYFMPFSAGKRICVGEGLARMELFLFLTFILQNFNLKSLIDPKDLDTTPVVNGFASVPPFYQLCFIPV
Chain of B-Raf (P15056 whole entry): as the sequence (P15056 whole entry V600E) above, with E600V counted along it
Chain of CYP2C9 (P11712 whole entry): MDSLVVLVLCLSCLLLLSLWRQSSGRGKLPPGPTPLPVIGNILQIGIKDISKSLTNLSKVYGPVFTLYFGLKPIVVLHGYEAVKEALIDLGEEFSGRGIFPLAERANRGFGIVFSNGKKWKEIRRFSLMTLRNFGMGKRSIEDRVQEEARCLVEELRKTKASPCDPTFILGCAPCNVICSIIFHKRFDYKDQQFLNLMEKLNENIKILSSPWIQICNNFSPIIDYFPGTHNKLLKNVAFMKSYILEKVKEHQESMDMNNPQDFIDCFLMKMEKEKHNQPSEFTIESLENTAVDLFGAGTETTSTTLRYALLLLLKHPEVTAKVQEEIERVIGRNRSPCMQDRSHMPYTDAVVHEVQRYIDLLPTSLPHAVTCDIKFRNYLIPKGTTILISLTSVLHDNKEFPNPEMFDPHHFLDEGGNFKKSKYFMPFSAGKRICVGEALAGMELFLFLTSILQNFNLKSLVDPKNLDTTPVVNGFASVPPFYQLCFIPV

As to `CCCS(=O)(=O)Nc1ccc(F)c(C(=O)c2c[nH]c3ncc(-c4ccc5ncsc5c4)cc23)c1F` [P-0020, Propane-1-sulfonic acid [3-(5-benzothiazol-6-yl-1H-pyrrolo[2,3-b]pyridine-3-carbonyl)-2,4-difluoro-phenyl]-amide], the IC50 was less than 0.1 µM on B-Raf; less than 0.1 µM on B-Raf V600E; greater than 10 µM at CYP1A2; 5 to 10 µM at CYP2C19; greater than 10 µM at CYP2C9; greater than 10 µM on CYP2D6. In addition, on CYP3A4(BFC), the IC50 is greater than 10 µM.

`CCCS(=O)(=O)Nc1ccc(F)c(C(=O)c2c[nH]c3ncc(-c4ccc5[nH]cc(C)c5c4)cc23)c1F` [P-0023, Propane-1-sulfonic acid {2,4-difluoro-3-[5-(3-methyl-1H-indol-5-yl)-1H-pyrrolo[2,3-b]pyridine-3-carbonyl]-phenyl}-amide]: the IC50 was less than 0.1 µM at B-Raf; less than 0.1 µM on B-Raf V600E; greater than 10 µM at CYP1A2; less than 5 µM on CYP2C19; greater than 10 µM at CYP2C9; greater than 10 µM at CYP2D6. For the same compound, the IC50 on CYP3A4(BFC) is greater than 10 µM.

In the case of `CCCS(=O)(=O)Nc1ccc(F)c(C(=O)c2c[nH]c3ncc(-c4ccc5cncnc5c4)cc23)c1F` [P-0025, Propane-1-sulfonic acid [2,4-difluoro-3-(5-quinazolin-7-yl-1H-pyrrolo[2,3-b]pyridine-3-carbonyl)-phenyl]-amide], the IC50 at B-Raf is less than 0.1 µM; on B-Raf V600E, less than 0.1 µM; on CYP1A2, greater than 10 µM; on CYP2C19, greater than 10 µM; on CYP2C9, 5 to 10 µM; at CYP2D6, greater than 10 µM. On CYP3A4(BFC), the IC50 is greater than 10 µM.

With `CCCS(=O)(=O)Nc1ccc(F)c(C(=O)c2c[nH]c3ncc(-c4cnn(C5CCNCC5)c4)cc23)c1F` [P-1002, Propane-1-sulfonic acid {2,4-difluoro-3-[5-(1-piperidin-4-yl-1H-pyrazol-4-yl)-1H-pyrrolo[2,3-b]pyridine-3-carbonyl]-phenyl}-amide], the IC50 on B-Raf was less than 0.1 µM; on B-Raf V600E, less than 0.1 µM; at CYP1A2, greater than 10 µM; at CYP2C19, greater than 10 µM; on CYP2C9 it was greater than 10 µM; at CYP2D6 it was greater than 10 µM. In addition, at CYP3A4(BFC), the concentration for half-maximal inhibition (IC50) is greater than 10 µM.

Regarding `O=C(c1c(F)ccc(NS(=O)(=O)c2ccc(C(F)(F)F)cc2)c1F)c1c[nH]c2ncc(-c3cnn(C4CCNCC4)c3)cc12` [P-1004, N-{2,4-Difluoro-3-[5-(1-piperidin-4-yl-1H-pyrazol-4-yl)-1H-pyrrolo[2,3-b]pyridine-3-carbonyl]-phenyl}-4-trifluoromethyl-benzenesulfonamide], the IC50 is less than 0.1 µM at B-Raf; less than 0.1 µM at B-Raf V600E; greater than 10 µM on CYP1A2; greater than 10 µM on CYP2C19; greater than 10 µM on CYP2C9; greater than 10 µM on CYP2D6. In addition, the half-maximal inhibitory concentration (IC50) on CYP3A4(BFC) was in the range of 5 to 10 µM.

As to `CCCS(=O)(=O)Nc1ccc(F)c(C(=O)c2c[nH]c3ncc(-c4csc(-n5ccnc5C)n4)cc23)c1F` [P-1101, Propane-1-sulfonic acid (2,4-difluoro-3-{5-[2-(2-methyl-imidazol-1-yl)-thiazol-4-yl]-1H-pyrrolo[2,3-b]pyridine-3-carbonyl}-phenyl)-amide], the IC50 at B-Raf is less than 0.1 µM; at B-Raf V600E, less than 0.1 µM; on CYP1A2 it was greater than 10 µM; at CYP2C19, greater than 10 µM; at CYP2C9 it was less than 5 µM; on CYP2D6, greater than 10 µM. Moreover, the concentration for half-maximal inhibition (IC50) on CYP3A4(BFC) was greater than 10 µM.

Consider `Cc1ccc(-c2cnc3[nH]cc(C(=O)c4c(F)ccc(NS(=O)(=O)c5cc(F)ccc5F)c4F)c3c2)cn1` [P-1408, N-{2,4-Difluoro-3-[5-(6-methyl-pyridin-3-yl)-1H-pyrrolo[2,3-b]pyridine-3-carbonyl]-phenyl}-2,5-difluoro-benzenesulfonamide], for which the IC50 was less than 0.1 µM at B-Raf; less than 0.1 µM at B-Raf V600E; greater than 10 µM at CYP1A2; greater than 10 µM on CYP2C19; 5 to 10 µM on CYP2C9; greater than 10 µM on CYP2D6. For the same compound, the IC50 on CYP3A4(BFC) is greater than 10 µM.

For `Cc1ncc(-c2cnc3[nH]cc(C(=O)c4c(F)ccc(NS(=O)(=O)c5cc(F)ccc5F)c4F)c3c2)cn1` [P-1503, N-{2,4-Difluoro-3-[5-(2-methyl-pyrimidin-5-yl)-1H-pyrrolo[2,3-b]pyridine-3-carbonyl]-phenyl}-2,5-difluoro-benzenesulfonamide], the IC50 on B-Raf is less than 0.1 µM; at B-Raf V600E, less than 0.1 µM; on CYP1A2, greater than 10 µM; at CYP2C19, greater than 10 µM; at CYP2C9 it was greater than 10 µM; at CYP2D6, greater than 10 µM. Moreover, the IC50 at CYP3A4(BFC) was greater than 10 µM.

Broadly, the IC50 is the midpoint of a concentration-inhibition curve.
